According to patent US12150995B2, “IRAK degraders and uses thereof” (Kymera Therapeutics, Inc., priority 2020, dated 2024):

Biological target: T1, IRAK4 (Homo sapiens, UniProt Q9NWZ3)
T1 construct: endogenous in cells; host or cells: OCI-LY10
T1 sequence (Q9NWZ3 1-460): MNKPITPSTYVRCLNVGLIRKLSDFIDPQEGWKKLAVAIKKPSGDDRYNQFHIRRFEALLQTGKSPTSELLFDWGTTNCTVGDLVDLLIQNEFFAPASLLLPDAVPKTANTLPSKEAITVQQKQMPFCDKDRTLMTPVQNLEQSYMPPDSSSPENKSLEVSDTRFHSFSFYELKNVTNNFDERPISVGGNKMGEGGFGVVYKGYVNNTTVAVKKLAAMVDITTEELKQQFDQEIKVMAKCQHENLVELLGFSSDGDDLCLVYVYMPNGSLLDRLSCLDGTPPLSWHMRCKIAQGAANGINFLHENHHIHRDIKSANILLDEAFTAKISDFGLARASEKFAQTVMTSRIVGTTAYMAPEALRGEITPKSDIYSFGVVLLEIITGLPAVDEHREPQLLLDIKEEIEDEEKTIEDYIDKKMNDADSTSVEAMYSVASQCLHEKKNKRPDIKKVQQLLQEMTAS
Test: IRAK4 MSD Degradation in OCI-LY10
Format: cell-based
Conditions: OCI-LY10 cells, Meso Scale Discovery, incubated 4 to 24 hours
How it was run: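 OCI-LY10 cells (300,000/well) exposed to an 8-point 1:3 series from a top concentration of 1 to 10 μM for 4 to 24 h at 37 °C. IRAK4 remaining in RIPA lysates quantified by MSD sandwich immunoassay; DC50 from a three-parameter logistic fit.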

Row | SMILES | DC50 [nM]
1 | COc1cc2nn([C@H]3CC[C@H](CN4CCN(c5cccc6c(N7CCC(=O)NC7=O)cncc56)CC4)CC3)cc2cc1NC(=O)c1ccnc(C(F)(F)F)n1 [I-300] | 10 to 50
2 | Cn1c(=O)n(C2CCC(=O)NC2=O)c2cccc(N3C[C@@H]4C[C@H]3CN4C[C@H]3CC[C@H](n4cc5cc(NC(=O)c6cccc(C(F)(F)F)n6)ccc5n4)CC3)c21 (stereo partly shown) [I-423] | < 10
3 | CC(C)Nc1cc(-n2ccc3cc(C#N)cnc32)ncc1-c1cn([C@H]2CC[C@H](CN3CCC(c4cccc5c(N6CCC(=O)NC6=O)cncc45)CC3)CC2)nn1 [I-329] | < 10
4 | CC(C)Nc1c(C(=O)N[C@H]2CC[C@H](CN3CCN(c4cccc5c4n(C)c(=O)n5C4CCC(=O)NC4=O)CC3)CC2)cnc2c1Oc1cc(C#N)ccc1O2 (stereo partly shown) [I-407] | < 10
5 | Cn1c(=O)n(C2CCC(=O)NC2=O)c2cccc(N3CCCN(C[C@H]4CC[C@H](n5cc6cc(NC(=O)c7cccc(C(F)(F)F)n7)ccc6n5)CC4)CC3)c21 (stereo partly shown) [I-328] | 10 to 50
6 | Cc1nc(C(=O)Nc2cc3cn([C@H]4CC[C@H](CN5CCC(c6cccc7c6n(C)c(=O)n7C6CCC(=O)N(C)C6=O)CC5)CC4)nc3cc2C(C)(C)O)co1 (stereo partly shown) [I-60] | > 200
7 | CC(C)(N)c1cc2nn([C@H]3CC[C@H](CN4C5CCC4CN(c4cccc6c(N7CCC(=O)NC7=O)cncc46)C5)CC3)cc2cc1NC(=O)c1cccc(C(F)(F)F)n1 [I-227] | < 10
8 | CCc1cc2nn([C@H]3CC[C@H](CN4CCN(c5cccc6c5n(C)c(=O)n6C5CCC(=O)NC5=O)CC4)CC3)cc2cc1NC(=O)c1cccc(C(F)(F)F)n1 (stereo partly shown) [I-378] | < 10
9 | CC(C)(O)c1cc2nn([C@H]3CC[C@H](CN4CCN(c5cccc6c(N7CCC(=O)NC7=O)cncc56)CC4)CC3)cc2cc1NC(=O)c1cccc(C(F)(F)F)n1 [I-224] | < 10
10 | O=C1CCN(c2cncc3cc(C4CCN(C[C@H]5CC[C@H](c6nc7ccc(NC(=O)c8cccc(C(F)(F)F)n8)cc7s6)CC5)CC4)ccc23)C(=O)N1 [I-181] | > 200
11 | COc1cc2nn([C@H]3CC[C@H](CN4CCN(c5c(C)ccc6c(N7CCC(=O)NC7=O)cncc56)CC4)CC3)cc2cc1NC(=O)c1cccc(C(F)(F)F)n1 [I-331] | < 10
12 | Cc1cc2nn([C@H]3CC[C@H](CN4CCC(c5cccc6c5n(C)c(=O)n6[C@H]5CCC(=O)NC5=O)CC4)CC3)cc2cc1NC(=O)c1cccc(C(F)(F)F)n1 (single isomer, unassigned) [I-390] | 10 to 50
13 | CC(C)Nc1cc(-n2ccc3cc(C(F)(F)F)cnc32)ncc1C(=O)N[C@H]1CC[C@H](CN2CCN(c3cccc4c3n(C)c(=O)n4C3CCC(=O)NC3=O)CC2)CC1 (stereo partly shown) [I-369] | 100 to 200
14 | Cc1cc2nn([C@H]3CC[C@H](CN4CCN(c5cccc6c5n(C)c(=O)n6C5CCC(=O)NC5=O)CC4(C)C)CC3)cc2cc1NC(=O)c1cccc(C(F)(F)F)n1 (stereo partly shown) [I-305] | 10 to 50
15 | COc1ccc2c(c1N1CCN(C[C@H]3CC[C@H](NC(=O)c4cnc(-c5ccc6cc(C#N)cnn56)cc4NC(C)C)CC3)CC1)n(C)c(=O)n2C1CCC(=O)NC1=O (stereo partly shown) [I-395] | < 10
16 | C[C@@H]1CN(c2cccc3c2n(C)c(=O)n3C2CCC(=O)NC2=O)CCN1C[C@H]1CC[C@H](n2cc3cc(NC(=O)c4cccc(C(F)(F)F)n4)ccc3n2)CC1 (stereo partly shown) [I-163] | < 10
17 | Cn1c(=O)n(C2CCC(=O)NC2=O)c2cccc(N3CCN(C[C@H]4CC[C@H](n5cc6cc7nc(-c8cccc(C(F)(F)F)n8)oc(=O)c7cc6n5)CC4)CC3)c21 (stereo partly shown) [I-406, 3-[3-methyl-2-oxo-4-[4-[[4-[8-oxo-6-[6-(trifluoromethyl)-2-pyridyl]pyrazolo[3,4-g] [3,1]benzoxazin-2-yl]cyclohexyl]methyl]piperazin-1-yl]benzimidazol-1-yl]piperidine-2,6-dione] | 10 to 50
18 | COc1ccc2c(c1C1CCN(C[C@H]3C[C@H](n4cc5cc(NC(=O)c6cccc(C(F)(F)F)n6)c(Cl)cc5n4)C3)CC1)n(C)c(=O)n2C1CCC(=O)NC1=O (stereo partly shown) [I-145] | 10 to 50
19 | COc1cc2nn([C@H]3CC[C@H](CN4CCC(c5ccc6c(N7CCC(=O)NC7=O)cncc6c5)CC4)CC3)cc2cc1NC(=O)c1cccc(C(F)(F)F)n1 [I-322] | < 10
20 | CC(C)(O)c1cc2nn([C@H]3CC[C@H](CN4CCC(c5ccc6c(N7CCC(=O)NC7=O)cncc6c5)CC4)CC3)cc2cc1NC(=O)c1cccc(C(F)(F)F)n1 [I-64] | < 10
21 | COc1cc2nn([C@H]3CC[C@H](CN4CCCN(c5ccc6c(N7CCC(=O)NC7=O)cncc6c5)CC4)CC3)cc2cc1NC(=O)c1cccc(C(F)(F)F)n1 [I-356] | < 10
22 | Cn1c(=O)n(C2CCC(=O)NC2=O)c2cc(Cl)cc(C3CCN(C[C@H]4CC[C@H](n5cc6cc(NC(=O)c7cccc(C(F)(F)F)n7)c(F)cc6n5)CC4)CC3)c21 (stereo partly shown) [I-72] | 10 to 50
23 | CC(C)Nc1cc(-n2ccc3cc(F)cnc32)ncc1C(=O)N[C@H]1CC[C@H](CN2CCN(c3cccc4c3n(C)c(=O)n4C3CCC(=O)NC3=O)CC2)CC1 (stereo partly shown) [I-290] | 10 to 50
24 | COc1cc2nn([C@H]3CC[C@H](CN4CCCN(c5cccc6c(N7CCC(=O)NC7=O)cncc56)CC4)CC3)cc2cc1NC(=O)c1cncc(C#N)c1 [I-289] | > 200
25 | COc1cc2nn([C@H]3CC[C@H](CN4CCN(c5cccc6c(N7CCC(=O)NC7=O)cncc56)[C@H](C)C4)CC3)cc2cc1NC(=O)c1cccc(C(F)(F)F)n1 [I-256] | < 10
26 | Cc1cc2nn([C@H]3CC[C@H](CN4CCC(c5cccc6c5n(C)c(=O)n6C5CCC(=O)N(C)C5=O)CC4)CC3)cc2cc1NC(=O)c1cccc(C(F)(F)F)n1 (stereo partly shown) [I-403] | > 200

The remaining lines, values ahead:

Row | DC50 [nM] | SMILES
27 | < 10 | COc1ccc2c(c1C1CCN(C[C@H]3CC[C@H](n4cc5cc(NC(=O)c6cccc(C(F)(F)F)n6)c(C#N)cc5n4)CC3)CC1)n(C)c(=O)n2C1CCC(=O)NC1=O (stereo partly shown) [I-205]
28 | 10 to 50 | Cc1cccc(C(=O)Nc2cc3sc([C@H]4CC[C@H](CN(C)CCCCNc5cccc6c5C(=O)N(C5CCC(=O)NC5=O)C6=O)CC4)nc3cc2C(C)(C)O)n1 (stereo partly shown) [I-444]
29 | > 200 | COc1cc2nc([C@H]3CC[C@H](CN(C)CCCNc4cccc5c4C(=O)N(C4CCC(=O)NC4=O)C5=O)CC3)sc2cc1NC(=O)c1cncc(F)c1 (stereo partly shown) [I-482]
30 | < 10 | COc1cc2nn([C@H]3CC[C@H](CN4CCC(c5c(OC)ccc6c5n(C)c(=O)n6C5CCC(=O)NC5=O)CC4)CC3)cc2cc1NC(=O)c1cncc(Cl)c1 (stereo partly shown) [I-111]
31 | < 10 | COc1cc2nn([C@H]3CC[C@H](CN4CCC(c5cccc6c5n(C)c(=O)n6C5CCC(=O)NC5=O)CC4)CC3)cc2cc1NC(=O)c1cncc(C#N)c1 (stereo partly shown) [I-77]
32 | < 10 | COc1cc2nn([C@H]3CC[C@H](CN(C)C4CCN(c5cc(Cl)cc6c5n(C)c(=O)n6C5CCC(=O)NC5=O)CC4)CC3)cc2cc1NC(=O)c1cccc(C(F)(F)F)n1 (stereo partly shown) [I-54]
33 | > 200 | COc1cc2nn([C@H]3CC[C@H](CN4C[C@H]5C[C@@H]4CN5c4cccc5c4n(C)c(=O)n5C4CCC(=O)NC4=O)CC3)cc2cc1NC(=O)c1cncc(C#N)c1 (stereo partly shown) [I-166]
34 | 100 to 200 | COc1cc2nn(CCN(C)C3CCN(c4cccc5c4n(C)c(=O)n5C4CCC(=O)NC4=O)CC3)cc2cc1NC(=O)c1cnn2cccnc12 (stereo not shown) [I-21, N-[2-[2-[[1-[1-(2,6-dioxo-3-piperidyl)-3-methyl-2-oxo-benzimidazol-4-yl]-4-piperidyl]-methyl-amino]ethyl]-6-methoxy-indazol-5-yl]pyrazolo[1,5-a]pyrimidine-3-carboxamide]
35 | 10 to 50 | CN(CCNc1cccc2c1C(=O)N(C1CCC(=O)NC1=O)C2=O)C[C@H]1CC[C@H](c2nc3cc(C(C)(C)O)c(NC(=O)c4cccc(C(F)(F)F)n4)cc3s2)CC1 (stereo partly shown) [I-492]
36 | 10 to 50 | COc1cc2nn([C@H]3CC[C@H](CN4CCC(c5cccc6c(N7CCC(=O)NC7=O)cncc56)CC4)CC3)cc2cc1NC(=O)c1cncc(C#N)c1 [I-121]
37 | > 200 | COc1cc2nn([C@H]3CC[C@H](CN4CCC5(CC4)CC(CCNc4cccc6c4C(=O)N(C4CCC(=O)NC4=O)C6=O)C5)CC3)cc2cc1NC(=O)c1cnn2ccc(C(F)(F)F)nc12 (stereo partly shown) [I-15]
38 | 50 to 100 | COc1cc2nn([C@H]3CC[C@H](CN(C)C4CCN(c5cccc6c(N7CCC(=O)NC7=O)cncc56)CC4)CC3)cc2cc1NC(=O)c1cncc(Cl)c1 [I-117]
39 | > 200 | COc1cc2nc([C@H]3CC[C@H](CN(C)CCCCNc4cccc5c4C(=O)N(C4CCC(=O)NC4=O)C5=O)CC3)sc2cc1NC(=O)c1cncc(Cl)c1 (stereo partly shown) [I-480]
40 | > 200 | COc1cc2c(cc1NC(=O)c1cccc(C(F)(F)F)n1)cc([C@H]1CC[C@H](CN(C)C3CCN(c4cccc5c4n(C)c(=O)n5C4CCC(=O)NC4=O)CC3)CC1)n2C (stereo partly shown) [I-41]
41 | < 10 | COc1cc2nn([C@H]3CC[C@H](CN(C)C4CCN(c5cccc6c5n(C)c(=O)n6C5CCC(=O)NC5=O)CC4)CC3)cc2cc1NC(=O)c1cncc(C#N)c1 (stereo partly shown) [I-71, 5-cyano-N-[2-[4-[[[1-[1-(2,6-dioxo-3-piperidyl)-3-methyl-2-oxo-benzimidazol-4-yl]-4-piperidyl]-methyl-amino]methyl]cyclohexyl]-6-methoxy-indazol-5-yl]pyridine-3-carboxamide]
42 | < 10 | COc1cc2nn([C@H]3CC[C@H](CN4CCC(c5cc(C)cc6c5n(C)c(=O)n6C5CCC(=O)NC5=O)CC4)CC3)cc2cc1NC(=O)c1cccc(C(F)(F)F)n1 (stereo partly shown) [I-35]
43 | 10 to 50 | COc1cc2nc([C@H]3CC[C@H](CN(C)CCCCNc4cccc5c4C(=O)N(C4CCC(=O)NC4=O)C5=O)CC3)sc2cc1NC(=O)c1cccc(C)n1 (stereo partly shown) [I-437]
